According to patent EP1832586A1, “Thiazole-piperidine derivatives in treatment of diseases of liver and the pancreas” (Oridis Biomed Forschungs- und Entwicklungs GmbH, priority 2006, dated 2007):

Test system: HuH7
Assay: CellTiter-Glo luminescent cell viability (proliferation) assay, HuH7
Format: cell-based
Conditions: Homo sapiens, Huh-7, 48 h, inhibition of HuH7 (human hepatoma) proliferation, 48 hours incubation, 10% FCS
Description: (§1) To practically assess the impact of the thiazole-piperidine derivatives, e.g. derivatives of piperidinyl-thiazole carboxylic acid and/or piperidinyl thiazole carboxamide, in the treatment and/or prevention of diseases according to the invention, the inhibition of cell proliferation is determined by using a luminescent cell viability assay (CellTiter-Glo®; Promega, Madison, USA). The assay is based on the relation that the ATP content is directly proportional to the number of cells present in the culture. The CellTiter-Glo® assay is performed to measure the proliferation rate of human hepatoma (HuH7, PLC/PRF/5, Hep3B, SK-Hep1), human hepatoblastoma (HepG2), human colon carcinoma (CX-2), human breast cancer (SK-Br-3), human ovarian carcinoma (HeLa) and human pancreatic carcinoma (DAN-G) cell lines. […] In particular, the compound according to formula (1) wherein R^1 is 4-isopropoxycarbonylphenyl, R^2 is 3-indolylmethyl, R^3 is hydrogen, R^4 is hydrogen, n is zero, A is a single bond, B is carbonyl, and wherein the residue R^1NR^3CO is connected to the carbon atom bound to nitrogen of the thiazole ring (compound no. XI in Table 1) inhibits proliferation of the human cell lines HepG2 and Hep3B with 10.8 and 3.5 µM, respectively.
(§2) To determine the inhibition of cell proliferation a luminescent cell viability assay (CellTiter-Glo®; Promega, Madison, USA) is implemented. The assay is based on the relation that the ATP content is directly proportional to the number of cells present in the culture (Technical Bulletin No. 228 "CellTiter-Glo® Luminescent Cell viability Assay", Revised 2/04. Promeg, Madison, USA). The CellTiter-Glo® assay is performed to measure the proliferation rate of human hepatoma (HuH7, PLC/PRF/5, Hep3B, SK-Hep1), human hepatoblastoma (HepG2), human colon carcinoma (CX-2), human breast cancer (SK-Br-3), human ovarian carcinoma (HeLa) and human pancreatic carcinoma (DAN-G) cell lines. 3000 viable cells (viability ≥ 90%) are seeded in opaque-walled 96-well plates and incubated for 24 hours in DMEM, supplemented with 2 mM glutamin. Cell proliferation is stimulated by addition of FCS to a final concentration of 10% (v/v). Simultaneously the compounds (see Table 1 and 2) are added in a concentration range of 0 to 20 µM. Triplicates are measured for each concentration. Cells and compounds (see Table 1 and 2) are incubated for a period of 48 hours in a volume of 140 µl cell culture medium (10% (v/v) FCS, 2 mM Glutamin, DMEM). The compounds according to the invention are dissolved in 60% to 100% (v/v) DMSO at a concentration of 2 mM. The final DMSO concentration under assay conditions never exceeds 1% (v/v). Throughout the assay cells are kept in a humidified incubator (95% rH) at 37°C and 5% CO2.
(§3) The final cell number is determined after 48 hour of incubation. Therefore 140 µl CellTiter-Glo®Reagent is added in each well. The contents are mixed on an orbital shaker for 2 minutes at room temperature. After subsequent incubation for additional 10 minutes at room temperature the luminescence signal is recorded within 30 min. EC50 values are calculated using the four-parametric Hill equation (Sigma Plot). Control values are: • 1) 10% (v/v) FCS, 2 mM glutamin, DMEM -> maximum cell number • 2) 2 mM glutamin, DMEM -> initial cell number

| EC50 [µM] | SMILES |
| --- | --- |
| 9.15 | O=C(NC1CCc2ccccc21)c1csc(C2CCN(C(=O)CC3C=Nc4ccccc43)CC2)n1 (stereo not shown) [XLVII] |
| 4 | Cc1ccc(NC(=O)c2csc(C3CCN(C(=O)CC4C=Nc5ccccc54)CC3)n2)c(F)c1 (stereo not shown) [XLVI] |
| 7.56 | CN(NC(=O)c1csc(C2CCN(C(=O)CC3C=Nc4ccccc43)CC2)n1)c1cnc2ccccc2n1 (stereo not shown) [XLV] |
| 16.7 | COc1ccccc1C(=O)NNC(=O)c1csc(C2CCN(C(=O)CC3C=Nc4ccccc43)CC2)n1 (stereo not shown) [XXIII] |
| 2.7 | O=C(NC1CCN(Cc2ccccc2)C1)c1csc(C2CCN(C(=O)CC3C=Nc4ccccc43)CC2)n1 (stereo not shown) [XXIX] |
| 35.6 | COc1ccc(CN2CCN(C(=O)c3csc(C4CCN(C(=O)CC5C=Nc6ccccc65)CC4)n3)CC2)cc1 (stereo not shown) [XXVII] |
| 5.8 | Cc1ccc(OCC(=O)N2CCC(c3nc(C(=O)Nc4nccs4)cs3)CC2)cc1C [XXV] |
| 3.08 | CC(=O)c1cc2cc(NC(=O)c3csc(C4CCN(C(=O)CC5C=Nc6ccccc65)CC4)n3)ccc2o1 (stereo not shown) [XXXII] |
| 4.24 | COc1ccc(C(N)=O)cc1NC(=O)c1csc(C2CCN(C(=O)Cc3ccccc3Cl)CC2)n1 [XXXIV] |
| 20.6 | COc1cccc(CCNC(=O)c2csc(C3CCN(C(=O)CC4C=Nc5ccccc54)CC3)n2)c1 (stereo not shown) [XXXVIII] |
| 3.95 | Cc1cc(Cl)ccc1CNC(=O)c1csc(C2CCN(C(=O)CC3C=Nc4ccccc43)CC2)n1 (stereo not shown) [XXXVI] |
| 3.5 | Cc1nc(C)c(C(=O)N2CCC(c3nc(C(=O)Nc4cc(-c5cccs5)nn4C)cs3)CC2)s1 [XXXV] |
| 4.2 | C=CCSc1ncccc1C(=O)N1CCC(c2nc(C(=O)Nc3cc(C(C)(C)C)n[nH]3)cs2)CC1 [XXX] |

Same assay, conditions: Huh-7; inhibition of HuH7 (human hepatoma) proliferation, 48 hours incubation, 10% FCS

| EC50 [µM] | SMILES |
| --- | --- |
| 3.42 | O=C(Nc1ccc(F)c([N+](=O)[O-])c1)c1csc(C2CCN(C(=O)Cc3c[nH]c4ccccc34)CC2)n1 [II] |
| 12.1 | O=C(Nc1cccc(-c2cnco2)c1)c1csc(C2CCN(C(=O)Cc3c[nH]c4ccccc34)CC2)n1 [IX] |
| 5.35 | O=C(Nc1cc(-c2ccccc2)[nH]n1)c1csc(C2CCN(C(=O)Cc3c[nH]c4ccccc34)CC2)n1 [I] |
| 3.38 | Cn1nc(-c2ccccc2)cc1NC(=O)c1csc(C2CCN(C(=O)Cc3c[nH]c4ccccc34)CC2)n1 [VII] |
| 2.98 | O=C(NCc1ccccc1[N+](=O)[O-])c1csc(C2CCN(C(=O)Cc3c[nH]c4ccccc34)CC2)n1 [XL] |
| 13.4 | Cn1nc(-c2cccs2)cc1NC(=O)c1csc(C2CCN(C(=O)c3ccccc3C(F)(F)F)CC2)n1 [XVIII] |
| 5.4 | Cc1nc(C)c(C(=O)N2CCC(c3nc(C(=O)Nc4cc(-c5ccccc5)nn4C)cs3)CC2)s1 [XXII] |
| 2.27 | C#CCOC(=O)N1CCC(c2nc(C(=O)Nc3cc(-c4ccccc4)n[nH]3)cs2)CC1 [XXVIII] |
| 2.19 | COc1ccc(C(=O)N2CCC(c3nc(C(=O)Nc4cc(-c5cccs5)n[nH]4)cs3)CC2)c(OC)c1OC [XXXIX] |

Test system: DAN-G
Assay: CellTiter-Glo luminescent cell viability (proliferation) assay, DAN-G
Format: cell-based
Conditions: DAN-G (human pancreatic carcinoma) proliferation, 48 hours incubation, 10% FCS
Description: as §1, §2, §3

| SMILES | EC50 [µM] |
| --- | --- |
| O=C(Nc1ccc(F)c([N+](=O)[O-])c1)c1csc(C2CCN(C(=O)Cc3c[nH]c4ccccc34)CC2)n1 [II] | 3.16 |
| Cn1nc(-c2ccccc2)cc1NC(=O)c1csc(C2CCN(C(=O)Cc3c[nH]c4ccccc34)CC2)n1 [VII] | 7.1 |
| O=C(NC1CCc2ccccc21)c1csc(C2CCN(C(=O)CC3C=Nc4ccccc43)CC2)n1 (stereo not shown) [XLVII] | 9.7 |
| O=C(NCc1ccccc1[N+](=O)[O-])c1csc(C2CCN(C(=O)Cc3c[nH]c4ccccc34)CC2)n1 [XL] | 9.01 |
| Cc1nc(NC(=O)c2csc(C3CCN(C(=O)Cc4c[nH]c5ccccc45)CC3)n2)sc1C [XVII] | 5.59 |
| Cc1nc(C)c(C(=O)N2CCC(c3nc(C(=O)NC4C=C(c5cccs5)N=N4)cs3)CC2)s1 (stereo not shown) [XVI] | 7.99 |

Test system: CX-2
Assay: CellTiter-Glo luminescent cell viability (proliferation) assay, CX-2
Format: cell-based
Conditions: CX-2 (human colon carcinoma) proliferation, 48 hours incubation, 10% FCS
Description: as §1, §2, §3

| SMILES | EC50 [µM] |
| --- | --- |
| O=C(Nc1ccc(F)c([N+](=O)[O-])c1)c1csc(C2CCN(C(=O)Cc3c[nH]c4ccccc34)CC2)n1 [II] | > 20 |
| Cn1nc(-c2ccccc2)cc1NC(=O)c1csc(C2CCN(C(=O)Cc3c[nH]c4ccccc34)CC2)n1 [VII] | > 20 |
| O=C(NC1CCc2ccccc21)c1csc(C2CCN(C(=O)CC3C=Nc4ccccc43)CC2)n1 (stereo not shown) [XLVII] | 19.9 |
| O=C(NCc1ccccc1[N+](=O)[O-])c1csc(C2CCN(C(=O)Cc3c[nH]c4ccccc34)CC2)n1 [XL] | 14.9 |
| Cc1nc(NC(=O)c2csc(C3CCN(C(=O)Cc4c[nH]c5ccccc45)CC3)n2)sc1C [XVII] | > 20 |
| Cc1nc(C)c(C(=O)N2CCC(c3nc(C(=O)NC4C=C(c5cccs5)N=N4)cs3)CC2)s1 (stereo not shown) [XVI] | > 20 |

Test system: HeLa
Assay: CellTiter-Glo luminescent cell viability (proliferation) assay, HeLa
Format: cell-based
Conditions: Hela (human ovarian carcinoma [sic]) proliferation, 48 hours incubation, 10% FCS
Description: as §1, §2, §3

| EC50 [µM] | SMILES |
| --- | --- |
| 12.1 | O=C(Nc1ccc(F)c([N+](=O)[O-])c1)c1csc(C2CCN(C(=O)Cc3c[nH]c4ccccc34)CC2)n1 [II] |
| 12.5 | Cn1nc(-c2ccccc2)cc1NC(=O)c1csc(C2CCN(C(=O)Cc3c[nH]c4ccccc34)CC2)n1 [VII] |
| 13.6 | O=C(NC1CCc2ccccc21)c1csc(C2CCN(C(=O)CC3C=Nc4ccccc43)CC2)n1 (stereo not shown) [XLVII] |
| 22.9 | O=C(NCc1ccccc1[N+](=O)[O-])c1csc(C2CCN(C(=O)Cc3c[nH]c4ccccc34)CC2)n1 [XL] |
| 23.5 | Cc1nc(NC(=O)c2csc(C3CCN(C(=O)Cc4c[nH]c5ccccc45)CC3)n2)sc1C [XVII] |
| 10.5 | Cc1nc(C)c(C(=O)N2CCC(c3nc(C(=O)NC4C=C(c5cccs5)N=N4)cs3)CC2)s1 (stereo not shown) [XVI] |

Test system: SK-Br-3
Assay: CellTiter-Glo luminescent cell viability (proliferation) assay, SK-Br-3
Format: cell-based
Conditions: Sk-Br-3 (human breast cancer) proliferation, 48 hours incubation, 10% FCS
Description: as §1, §2, §3

| EC50 [µM] | SMILES |
| --- | --- |
| 10.4 | O=C(Nc1ccc(F)c([N+](=O)[O-])c1)c1csc(C2CCN(C(=O)Cc3c[nH]c4ccccc34)CC2)n1 [II] |
| 10.8 | Cn1nc(-c2ccccc2)cc1NC(=O)c1csc(C2CCN(C(=O)Cc3c[nH]c4ccccc34)CC2)n1 [VII] |
| 11.2 | O=C(NC1CCc2ccccc21)c1csc(C2CCN(C(=O)CC3C=Nc4ccccc43)CC2)n1 (stereo not shown) [XLVII] |
| 23.8 | O=C(NCc1ccccc1[N+](=O)[O-])c1csc(C2CCN(C(=O)Cc3c[nH]c4ccccc34)CC2)n1 [XL] |
| 18.9 | Cc1nc(NC(=O)c2csc(C3CCN(C(=O)Cc4c[nH]c5ccccc45)CC3)n2)sc1C [XVII] |
| > 20 | Cc1nc(C)c(C(=O)N2CCC(c3nc(C(=O)NC4C=C(c5cccs5)N=N4)cs3)CC2)s1 (stereo not shown) [XVI] |
